The values that follow come from PubChem BioAssay AID624432 (The Scripps Research Institute Molecular Screening Center, 2012).

The source made the active and inactive calls.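 How the source made its calls: active means compounds whose fitted IC50 is below 25 µM; inactive means the rest.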

This test addresses Serine/threonine-protein phosphatase 5 (Homo sapiens) (UniProt P53041). In words: IC50 of PP5 catalytic subunit inhibitors – biochemical, fluorescence, powder samples, fifth round, dose response (AID 624432). The note with it: purified PP5c, OMFP dephosphorylation.

Chain of Serine/threonine-protein phosphatase 5 (Homo sapiens) (P53041 whole entry, looked up): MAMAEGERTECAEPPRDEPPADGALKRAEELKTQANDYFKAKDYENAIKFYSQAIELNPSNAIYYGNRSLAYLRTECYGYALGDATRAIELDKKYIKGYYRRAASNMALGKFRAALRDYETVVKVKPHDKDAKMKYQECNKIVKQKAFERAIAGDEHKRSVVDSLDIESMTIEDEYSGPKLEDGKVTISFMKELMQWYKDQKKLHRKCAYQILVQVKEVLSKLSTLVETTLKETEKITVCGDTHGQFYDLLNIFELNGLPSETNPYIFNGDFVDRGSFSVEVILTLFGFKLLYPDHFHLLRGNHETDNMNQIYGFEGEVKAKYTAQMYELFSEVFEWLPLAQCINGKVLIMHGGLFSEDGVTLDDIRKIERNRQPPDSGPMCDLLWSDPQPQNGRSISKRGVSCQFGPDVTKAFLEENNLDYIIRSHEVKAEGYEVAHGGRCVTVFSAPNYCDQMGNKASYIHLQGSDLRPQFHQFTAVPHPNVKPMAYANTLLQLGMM

Regarding `O=C(O)c1n[nH]nc1-c1ccccc1C(F)(F)F`, the IC50 – broadly, the point on the concentration scale where inhibition reaches its midpoint – was > 1000 µM (inactive).

For the molecule `Cc1cccc(C)c1-c1n[nH]nc1C(=O)O`, the IC50 result was “inactive”.
